Test results reported in patent US10722436B2, “Topical compositions” (MARY KAY INC., priority 2015, dated 2020).
Where no end group is shown, it is not given here. The star is where a group is joined. Hexanoyl = CCCCCC(=O)*

How the values were obtained:
[1] = test system: B16-F1 melanocytes; experiment: B16 Pigmentation Assay (melanin secretion); assay type: cell-based, mouse; conditions: B16-F1 cells, 6 days
Protocol: Melanogenesis is the process by which melanocytes produce melanin, a naturally produced pigment that imparts color to skin, hair, and eyes. Inhibiting melanogenesis is beneficial to prevent skin darkening and lighten dark spots associated with aging. Melanogenesis in B16 cells was determined in the presence or absence of niacinamide by measuring melanin secretion. It was determined that niacinamide inhibits melanogenesis by 30%.
Melanogenesis was determined using B16-F1 melanocytes (ATCC), an immortalized mouse melanoma cell line. The endpoint of this assay was a spectrophotometric measurement of melanin production and cellular viability. B16-F1 melanocytes, were cultivated in standard DMEM growth medium with 10% fetal bovine serum (Mediatech) at 37° C. in 10% CO2 and then treated with or without niacinamide for 6 days. Following incubation, melanin secretion was measured by absorbance at 405 nm and cellular viability was quantified.

[2] = test system: mushroom tyrosinase; experiment: Mushroom Tyrosinase Activity Assay; assay type: biochemical; conditions: substrate L-Dopa
Protocol: In mammalian cells, tyrosinase catalyzes two steps in the multi-step biosynthesis of melanin pigments from tyrosine (and from the polymerization of dopachrome). Tyrosinase is localized in melanocytes and produces melanin (aromatic quinone compounds) that imparts color to skin, hair, and eyes. The activity of tyrosinase on its substrate L-Dopa in the presence or absence of oligopeptide-1 was determined using a colorimetric mushroom tyrosinase activity assay. It was determined that oligopeptide-1 inhibits tyrosinase by 40%. Tyrosinase activity was assayed by measuring the ability of purified mushroom tyrosinase (Sigma) to oxidize its substrate, L-Dopa (Fisher), in the presence or absence of oligopeptide-1. Oxidation of L-DOPA by the tyrosinase produced a pigment that was evaluated by colorimetric plate reading at 490 nm. The percent inhibition of mushroom tyrosinase activity was calculated and compared to non-treated controls to determine the ability of test ingredients to inhibit the activity of purified enzyme. Test inhibition was compared with that of the known tyrosinase inhibitor kojic acid (Sigma).

[3] = test system: TNF-α production in keratinocytes; experiment: Inhibition of Tumor Necrosis Factor Alpha (ELISA, PMA-treated keratinocytes); assay type: cell-based, human; conditions: PMA 10 ng/ml, 6 hours
Protocol: TNF-α is the prototype ligand of the TNF superfamily. It is a pleiotropic cytokine that plays a central role in inflammation. Increase in its expression is associated with an up regulation in pro-inflammatory activity. The bioassay used to analyze the effect of oligopeptide-1 and Opuntia ficus-indica extract used a spectrophotometric measurement that reflects the presence of TNF-α and cellular viability. It was determined that oligopeptide-1 and Opuntia ficus-indica extract inhibits TNF-α production in keratinocytes by 40% and 50%.
Subconfluent normal human adult keratinocytes (Cascade Biologics) cultivated in EpiLife standard growth medium (Cascade Biologics) at 37° C. in 5% CO2, were treated with phorbol 12-myristate 13-acetate (PMA, 10 ng/ml, Sigma Chemical, #P1585-1MG) and either oligopeptide-1 or Opuntia ficus-indica extract (treated samples) or no additional treatment (untreated sample) for 6 hours. PMA causes a dramatic increase in TNF-α secretion which peaks at 6 hours after treatment. Following incubation, cell culture medium was collected and the amount of TNF-a secretion quantified using a sandwich enzyme linked immuno-sorbant assay (ELISA) from R&D Systems (#DTA00C).
Briefly, the ELISA assay employed the quantitative sandwich enzyme immunoassay technique whereby a monoclonal antibody specific for TNF-α was been pre-coated onto a microplate. […]

[4] = test system: elastin production in cultured human fibroblasts; experiment: Elastin Stimulation Assay; assay type: cell-based
Protocol: Elastin is a connective tissue protein that helps skin resume shape after stretching or contracting. Elastin is also an important load-bearing protein used in places where mechanical energy is required to be stored. Elastin is made by linking many soluble tropoelastin protein molecules, in a reaction catalyzed by lysyl oxidase. Elastin production was determined in cultured human fibroblasts incubated in the presence or absence of oligopeptide-1. It was determined that oligopeptide-1 increased elastin production by 23%.
Elastin secretion and elastin fibers were monitored by staining of cultured human fibroblasts using antibodies directed against elastin. Human fibroblasts were treated with or without oligopeptide-1. Following incubation, elastin content was measured using immunofluorescent antibodies directed against elastin.

[5] = test system: procollagen peptide production in human epidermal fibroblasts; experiment: Collagen Stimulation Assay (procollagen peptide ELISA); assay type: cell-based; conditions: 3 days
Protocol: Collagen is an extracellular matrix protein critical for skin structure. Increased synthesis of collagen helps improve skin firmness and elasticity. Collagen stimulation was determined using a sandwich enzyme linked immuno-sorbant assay (ELISA) from Takara (#MK101) by measuring production of procollagen peptide (a precursor to collagen) in human epidermal fibroblasts incubated in the presence or absence of oligopeptide-1 or Prunus mume extract. It was determined that oligopeptide-1 increased collagen stimulation by 20% and Prunus mume extract increased collagen stimulation by 71%.
Collagen stimulation can be monitored by a spectrophotometric measurement that reflects the presence of procollagen peptide and cellular viability. The assay employs the quantitative sandwich enzyme immunoassay technique whereby a monoclonal antibody specific for procollagen peptide has been pre-coated onto microplate wells. […] Following incubation, cell culture medium was collected (samples and controls) and the amount of procollagen peptide secretion was quantified using a sandwich enzyme linked immuno-sorbant assay (ELISA) from Takara (#MK101). […] The color development was stopped and the color development was measured at 450 nm by a microplate reader.

| Compound | inhibits melanogenesis by [1] [%] | Inhibition of Melanogenesis: Activity ([1]; negative = inhibition) [%] | inhibits tyrosinase by [2] [%] | Inhibition of Tyrosinase: Activity ([2]; negative = inhibition) [%] | inhibits TNF-α production in keratinocytes by [3] [%] | Inhibition of TNF-α: Activity ([3]; negative = inhibition) [%] | increased elastin production by [4] [%] | Elastin Production: Activity ([4]; positive = increase) | increased collagen stimulation by [5] [%] | Collagen Stimulation: Activity ([5]; positive = increase) |
| --- | --- | --- | --- | --- | --- | --- | --- | --- | --- | --- |
| NC(=O)c1cccnc1 [Niacinamide, 3-Pyridinecarboxamide] | 30 | −30 |  |  |  |  |  |  |  |  |
| caprooyl-Gly-His-Lys-Lys (Hexanoyl-GHKK) [Oligopeptide-1, modified tetrapeptide; Lucas Meyer, trade name ChroNOline] |  |  | 40 | −40 | 40 | −40 | 23 | +23% | 20 | +20% |
